One assay addresses hOGG1 (Homo sapiens, UniProt O15527). Nature of the assay: Biochemical fluorescence assay to measure enzymatic activity of hOGG1 (OGG1/APEX IC50). Further details: Protein His-hOGG1 (12-323) was prepared; His (N); host or cells: E. coli. As to conditions: 1 nM OGG1+2 nM APEX+6 nM dsDNA (8-oxo-dG substrate); pH 7.5; RT 40 min; read-out: OGG1/APEX IC50. A digest of the protocol: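 His-hOGG1 (12-323, E. coli) at 1 nM with 2 nM hAPE1/APEX1, preincubated 20 min RT with compound. Then 6 nM 8-oxo-dG dsDNA substrate added, 40 min at RT in Tris pH 7.5, 100 mM KCl. TAMRA fluorescence (Ex520/Em600) converted to % inhibition vs controls; IC50 from 3-parameter fit of 10-point curve.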

The target in the next assay is T1, nLucOGG1 in HeLa cells (Homo sapiens, UniProt O15527).
T1 construct: thermal shift read by NanoGlo luminescence
T1 sequence (O15527 whole entry): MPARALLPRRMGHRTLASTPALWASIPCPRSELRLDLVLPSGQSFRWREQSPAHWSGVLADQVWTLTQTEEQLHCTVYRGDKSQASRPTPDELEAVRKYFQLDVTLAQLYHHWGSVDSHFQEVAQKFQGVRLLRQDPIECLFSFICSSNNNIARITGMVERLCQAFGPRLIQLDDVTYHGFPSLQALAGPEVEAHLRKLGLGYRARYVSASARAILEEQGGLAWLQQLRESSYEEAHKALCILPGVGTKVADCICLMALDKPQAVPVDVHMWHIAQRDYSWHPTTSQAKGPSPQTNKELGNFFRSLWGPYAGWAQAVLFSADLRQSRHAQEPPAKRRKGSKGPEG
Put plainly: Cellular Thermal Shift Assay to measure compound affinity for nLucOGG1 in HeLa cells (CETSA DTm). It counts as cell-based. As to conditions: 10 μM compound, 37° C. 60 min, Tm vs DMSO control. As to the method: Biological Example 2: Cellular Thermal Shift Assay to Measure Compound Affinity for ^nLucOGG1 in HeLa Cells (CETSA DTm)
Cell Culture and Transfection of Hela Cells with ^nLucOGG1: For all tests, Hela cells were maintained in growth medium, Dulbecco's Minimum Eagle Medium (Multicell: Cat #319-005-CL) supplemented with 10% heat-inactivated fetal bovine serum (Gibco: Cat #12484-028) at 37° C. and 5% CO2 in a humidified tissue culture incubator. Transient transfections were performed using the Lonza 4-D Nucleofector X unit according to the manufacturer's protocol (Lonza Cat #V4XC-1024). Briefly, for each transfection, 1.2×10^6 cells were centrifuged at 1000 RPM for 5 minutes at room temperature before being diluted in 100 μL SE solution containing 18% v/v supplement and 1.5 μg pNF1-N-empty or pNF1-N-OGG1a vector. The total volume was transferred to a 100 μL nucleofection cuvette prior to transfer to the apparatus where HeLa cell nucleofection protocol CN-114 was executed. Following nucleofection, 500 μL complete media was added to the cells in the cuvette before transferring to a 6-well dish containing 1.5 mL of complete media. Cells were left to incubate for 48 hours before performing all cellular thermal shift experiments.
Cellular Thermal Shift Assays for Target Engagement (CETSA): Forty-eight hours following nucleofection, cells were washed once with DPBS−/−(Multicell: Cat #311-425-CL) and lifted with 0.25% Trypsin-EDTA (Multicell: Cat #325-043-CL) prior to dilution in growth medium and centrifugation at 1000 RPM for 5 minutes at room temperature. The resulting cell pellet was then resuspended in growth medium, cells were counted and the volume adjusted to 500 k cells/mL (2×).
For delta Tm determination, OGG1 inhibitor compounds were dissolved in DMSO to a final working concentration of 20 mM. Working solutions were then diluted in complete media to 20 μM or 0.1% DMSO for the vehicle control (2×). 2×OGG1 inhibitor compound solutions or 0.1% DMSO control were then pre-dispensed into MicroAmp Optical 96-well PCR reaction plates (Applied Biosystems: Cat #4346906) at 50 μL/well. Next, 50 μL or 25 k cells/well from the 2× cell suspension was added to the pre-loaded PCR plates. All plates were prepared as duplicates, covered with adhesive plate sealers (Perkin Elmer: Cat #6050185) and left to incubate at 37° C. for 60 minutes. During incubation, sufficient NanoGlo luciferase assay reagents (Promega: Cat #N1120) were left to equilibrate to room temperature in the dark. Immediately before heating the plates, the NanoGlo substrate was mixed with the NanoGlo buffer at a 1:50 ratio. The thermal cycler (Veriti 96-Well Thermal Cycler, Thermo Fisher Scientific) was allowed to reach the designated temperature prior to placement of the PCR plate into the heating block. For Tm determination experiments, duplicate plates containing a fixed concentration of test compound (10 μM final) as well as vehicle control were prepared to perform a 12-point temperature gradient spanning 37-70° C. for 3 minutes. Therefore, two thermal cycler protocols were set up covering two 6-step temperature gradients ranging from 37-52° C. and 52-70° C. Plates were then allowed to cool at room temperature for 5 minutes after the heat treatment followed by transfer of 75 μL of the reaction into a 96-well white polystyrene microplate (Corning: Cat #CLS3903) and addition of 75 μL of the prepared NanoGlo mixture. Microplates were then left to shake in the dark for 5 minutes before total luminescence was measured on a SpectraMax IX3 plate reader. The luminescence value obtained at each temperature was normalized to the luminescence obtained at 37° C. and the ratio obtained was plotted against the temperature. A Boltzman Sigmoidal non-linear regression was applied to the resulting data to determine Tm values and the difference between the Tm value for a given OGG1 inhibitor relative to the DMSO vehicle control was the delta Tm.

Bounds are passed on as bounds.

hOGG1, sequence (O15527 12-323): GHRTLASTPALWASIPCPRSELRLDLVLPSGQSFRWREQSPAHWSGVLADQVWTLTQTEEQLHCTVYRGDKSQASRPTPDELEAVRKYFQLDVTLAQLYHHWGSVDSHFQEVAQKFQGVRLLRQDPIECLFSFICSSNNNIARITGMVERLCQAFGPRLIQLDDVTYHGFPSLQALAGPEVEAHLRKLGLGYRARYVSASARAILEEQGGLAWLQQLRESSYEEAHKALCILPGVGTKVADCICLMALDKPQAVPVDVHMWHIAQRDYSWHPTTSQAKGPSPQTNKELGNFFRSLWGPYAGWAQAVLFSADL

Consider `COc1ccc(NC(=O)[C@]2(C)CC[C@H](N3Cc4c(C)ccc(OC)c4NC3=O)CC2)cc1Cl` (single isomer, unassigned) [Example 7, (1s,4s)-N-(3-chloro-4-methoxyphenyl)-4-(8-methoxy-5-methyl-2-oxo-1,2-dihydroquinazolin-3(4H)-yl)-1-methylcyclohexanecarboxamide], for which the IC50 at hOGG1 was under 100 nM. At nLucOGG1 in HeLa cells, the ΔTm at 10 µM was 8 to 10 °C.
For `COc1ccc(NC(=O)[C@]2(C)CC[C@H](N3Cc4c(C)ccc(OC)c4NC3=O)CC2)cc1C#N` (single isomer, unassigned) [Example 9, (1s,4s)-N-(3-cyano-4-methoxyphenyl)-4-(8-methoxy-5-methyl-2-oxo-1,2-dihydroquinazolin-3(4H)-yl)-1-methylcyclohexanecarboxamide] the same measures were under 100 nM and 8 to 10 °C.
For `COc1ccc(NC(=O)[C@]2(C)CC[C@H](N3Cc4c(C)ccc(OC)c4NC3=O)CC2)cc1C` (single isomer, unassigned) [Example 11, (1s,4s)-N-(3-methyl-4-methoxyphenyl)-4-(8-methoxy-5-methyl-2-oxo-1,2-dihydroquinazolin-3(4H)-yl)-1-methylcyclohexanecarboxamide] the same measures were under 100 nM and 8 to 10 °C.
The corresponding values for `COc1ccc(NC(=O)[C@]2(C)CC[C@H](N3Cc4c(C)cccc4NC3=O)CC2)cc1Cl` (single isomer, unassigned) [Example 103, (1s,4s)-N-(3-chloro-4-methoxyphenyl)-1-methyl-4-(5-methyl-2-oxo-1,2-dihydroquinazolin-3(4H)-yl)cyclohexanecarboxamide] are under 100 nM and 8 to 10 °C.
For `COc1ccc(NC(=O)[C@H]2CC[C@@H](N3Cc4c(C)ccc(OC)c4NC3=O)CC2)cc1C#N` [Example 2, (1s,4s)-N-(3-Cyano-4-methoxyphenyl)-4-(8-methoxy-5-methyl-2-oxo-1,2-dihydroquinazolin-3(4H)-yl)cyclohexanecarboxamide], the IC50 at hOGG1 lay within 100 to 1000 nM. Further, the thermal shift (ΔTm) at 10 µM at nLucOGG1 in HeLa cells lay within 6 to 8 °C.
For `COc1ccc(NC(=O)[C@H]2CC[C@@H](N3Cc4c(C)ccc(OC)c4NC3=O)CC2)cc1Cl` [Example 3, (1s,4s)-N-(3-Chloro-4-methoxyphenyl)-4-(8-methoxy-5-methyl-2-oxo-1,2-dihydroquinazolin-3(4H)-yl)cyclohexanecarboxamide] the same measures were 100 to 1000 nM and 6 to 8 °C.
`COc1ccc(NC(=O)[C@H]2CC[C@@H](N3Cc4c(C)ccc(OC)c4NC3=O)CC2)cc1C` [Example 4, (1s,4s)-N-(3-Methyl-4-methoxyphenyl)-4-(8-methoxy-5-methyl-2-oxo-1,2-dihydroquinazolin-3(4H)-yl)cyclohexanecarboxamide]: the IC50 at hOGG1 lay within 100 to 1000 nM. Further, at nLucOGG1 in HeLa cells, the ΔTm at 10 µM was 6 to 8 °C.
For `COc1cc(NC(=O)[C@H]2CC[C@@H](N3Cc4c(C)ccc(P(C)(C)=O)c4NC3=O)CC2)ccc1C` [Example 5, (1s,4s)-4-(8-(Dimethylphosphoryl)-5-methyl-2-oxo-1,2-dihydroquinazolin-3(4H)-yl)-N-(3-methoxy-4-methylphenyl)cyclohexanecarboxamide] the same measures were 100 to 1000 nM and 6 to 8 °C.
For `COc1cc(NC(=O)[C@]2(C)CC[C@H](N3Cc4c(C)ccc(OC)c4NC3=O)CC2)ccc1C` [Example 13, (1s,4s)-N-(3-Methoxy-4-methylphenyl)-4-(8-methoxy-5-methyl-2-oxo-1,2-dihydroquinazolin-3(4H)-yl)-1-methylcyclohexanecarboxamide] the same measures were 100 to 1000 nM and 8 to 10 °C.
The corresponding values for `COc1ccc(NC(=O)[C@H]2CC[C@@H](N3Cc4c(C)ccnc4NC3=O)CC2)cc1Cl` [Example 14, (1s,4s)-N-(3-Chloro-4-methoxyphenyl)-4-(5-methyl-2-oxo-1,2-dihydropyrido[2,3-d]pyrimidin-3(4H)-yl)cyclohexanecarboxamide] are 100 to 1000 nM and 6 to 8 °C.
Regarding `COc1ccc(NC(=O)[C@H]2CC[C@@H](N3Cc4c(C)ccnc4NC3=O)CC2)cc1` [Example 15, (1s,4s)-N-(4-methoxyphenyl)-4-(5-methyl-2-oxo-1,2-dihydropyrido[2,3-d]pyrimidin-3(4H)-yl)cyclohexanecarboxamide], the IC50 at hOGG1 was 1000 to 10000 nM. For the same compound, the thermal shift (ΔTm) at 10 µM on nLucOGG1 in HeLa cells was in the range of 6 to 8 °C.
For `COc1ccc(NC(=O)[C@H]2CC[C@@H](N3Cc4c(C)ccnc4NC3=O)CC2)cc1C` [Example 16, (1s,4s)-N-(4-Methoxy-3-methylphenyl)-4-(5-methyl-2-oxo-1,2-dihydropyrido[2,3-d]pyrimidin-3(4H)-yl)cyclohexanecarboxamide] the same measures were under 100 nM and 8 to 10 °C.
For `COc1cc(NC(=O)[C@H]2CC[C@@H](N3Cc4c(C)ccc(CNC(C)=O)c4NC3=O)CC2)ccc1C` [Example 17, (1s,4s)-4-(8-(Acetamidomethyl)-5-methyl-2-oxo-1,2-dihydroquinazolin-3(4H)-yl)-N-(3-methoxy-4-methylphenyl)cyclohexanecarboxamide] the same measures were under 100 nM and over 10 °C.
The corresponding values for `COc1cc(NC(=O)[C@H]2CC[C@@H](N3Cc4c(C)cnc(CNC(C)=O)c4NC3=O)CC2)ccc1C` [Example 19, (1s,4s)-4-(8-(Acetamidomethyl)-5-methyl-2-oxo-1,2-dihydropyrido[3,4-d]pyrimidin-3(4H)-yl)-N-(3-methoxy-4-methylphenyl)cyclohexanecarboxamide] are under 100 nM and 8 to 10 °C.
Turning to `COc1cc(NC(=O)[C@H]2CC[C@@H](N3Cc4c(C)cc(CN)cc4NC3=O)CC2)ccc1C` [Example 28, (1s,4s)-4-(7-(Aminomethyl)-5-methyl-2-oxo-1,2-dihydroquinazolin-3(4H)-yl)-N-(3-methoxy-4-methylphenyl)cyclohexanecarboxamide], the IC50 on hOGG1 was under 100 nM. For the same compound, the thermal shift (ΔTm) at 10 µM on nLucOGG1 in HeLa cells was over 10 °C.
In the case of `COc1cc(NC(=O)[C@H]2CC[C@@H](N3Cc4c(C)cc(N5CC6(COC6)C5)cc4NC3=O)CC2)ccc1C` [Example 30, (1s,4s)-N-(3-Methoxy-4-methylphenyl)-4-(5-methyl-2-oxo-7-(2-oxa-6-azaspiro[3.3]heptan-6-yl)-1,2-dihydroquinazolin-3(4H)-yl)cyclohexanecarboxamide], at hOGG1, the IC50 is under 100 nM. In addition, the shift in melting temperature (ΔTm) at 10 µM on nLucOGG1 in HeLa cells is 8 to 10 °C.
The corresponding values for `COc1cc(NC(=O)[C@H]2CC[C@@H](N3Cc4c(C)ccc(N5CC6(COC6)C5)c4NC3=O)CC2)ccc1C` [Example 35, (1s,4s)-N-(3-Methoxy-4-methylphenyl)-4-(5-methyl-2-oxo-8-(2-oxa-6-azaspiro[3.3]heptan-6-yl)-1,2-dihydroquinazolin-3(4H)-yl)cyclohexanecarboxamide] are 100 to 1000 nM and 6 to 8 °C.

What is called ΔTm is the shift of the melting midpoint relative to a reference.

The values above are taken from patent US20260317356A1, “SMALL MOLECULE MODULATORS OF OGG1” (AZKARRA THERAPEUTICS, INC., priority 2023, published 2026).
